Reference: PubChem BioAssay (NCI)
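All cell lines were grown in 96-well plates and treated with compound for 48 hours. Abbreviation: GI50, concentration required for 50% inhibition of growth. At the TGI there is no net growth.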

Experiments:
Experiment in all cases: NCI anticancer screen, dose series, 48 h
[1] = tested on: A549 NSCLC
[2] = tested on: IGROV1 ovarian
[3] = tested on: MDA-MB-231 breast
[4] = tested on: NCI-H226 lung
[5] = tested on: NCI-H23 lung
[6] = tested on: OVCAR-4 ovarian
[7] = tested on: OVCAR-8 ovarian
[8] = tested on: UACC-62 melanoma

COc1ccc(C2NC(=S)NC3=C2CCOc2c3ccc3ccccc23)cc1 (configuration not stated)
GI50 [1]: 39 µM | TGI [1]: > 100 µM | GI50 [2]: > 100 µM | TGI [2]: > 100 µM | GI50 [3]: 98.9 µM | TGI [3]: > 100 µM | GI50 [4]: 58.5 µM | TGI [4]: > 100 µM | GI50 [5]: > 100 µM | TGI [5]: > 100 µM | GI50 [6]: > 100 µM | TGI [6]: > 100 µM | GI50 [7]: 32.6 µM | TGI [7]: > 100 µM | GI50 [8]: 21.2 µM | TGI [8]: > 100 µM

Cn1c(=O)c2c(nc(N/N=C/c3ccccc3C(=O)O)n2C)n(C)c1=O
TGI [1]: > 100 µM | TGI [2]: > 100 µM | TGI [3]: > 100 µM | TGI [4]: > 100 µM | TGI [5]: > 100 µM | TGI [6]: > 100 µM | TGI [7]: > 100 µM | TGI [8]: > 100 µM

COc1ccc(-c2cc(/C=C/C(=O)c3ccc(N)cc3)[nH]n2)cc1
GI50 [1]: 2.55 µM | TGI [1]: 10.2 µM | GI50 [2]: 2.27 µM | TGI [2]: 6.45 µM | GI50 [3]: 2.14 µM | TGI [3]: 8.29 µM | GI50 [4]: 2.05 µM | TGI [4]: 5.57 µM | GI50 [5]: 3.22 µM | TGI [5]: 13.1 µM | GI50 [6]: 1.08 µM | TGI [6]: 8.01 µM | GI50 [7]: 2.44 µM | TGI [7]: 15.4 µM | GI50 [8]: 1.48 µM | TGI [8]: 2.94 µM

COc1ccc(C2=Nn3c(nnc3-n3nc(C)cc3C)SC2)cc1
GI50 [1]: 0.0765 µM | TGI [1]: > 100 µM | GI50 [2]: 0.107 µM | TGI [2]: > 100 µM | GI50 [3]: 0.177 µM | TGI [3]: > 100 µM | TGI [4]: > 100 µM | GI50 [5]: 0.18 µM | TGI [5]: > 100 µM | GI50 [6]: 4.53 µM | TGI [6]: > 100 µM | GI50 [7]: 0.0691 µM | TGI [7]: > 100 µM | GI50 [8]: 0.0462 µM | TGI [8]: > 100 µM

O=C(O)c1ccccc1NCn1c(=S)sc2ccccc21
TGI [1]: > 100 µM | TGI [2]: > 100 µM | TGI [3]: > 100 µM | TGI [5]: 63.4 µM | TGI [6]: > 100 µM | TGI [7]: > 100 µM | TGI [8]: > 100 µM

NC(=O)/C(=C/n1cnc(-c2cc(C(F)(F)F)cc(C(F)(F)F)c2)n1)c1cncnc1
GI50 [1]: 0.552 µM | TGI [1]: > 47.1 µM | GI50 [2]: 0.696 µM | TGI [2]: 14.7 µM | GI50 [3]: 0.186 µM | TGI [3]: 16.9 µM | GI50 [4]: 0.286 µM | TGI [4]: 7.73 µM | GI50 [5]: 0.307 µM | TGI [5]: 9.18 µM | GI50 [6]: 0.0833 µM | TGI [6]: 16.1 µM | GI50 [7]: 0.329 µM | TGI [7]: 18.2 µM | GI50 [8]: 0.63 µM | TGI [8]: 5.37 µM

O=NNc1ccc(S(=O)(=O)c2ccc3ccccc3c2)cn1
TGI [1]: > 100 µM | TGI [2]: > 100 µM | TGI [3]: > 100 µM | TGI [4]: > 100 µM | TGI [5]: > 100 µM | TGI [6]: > 100 µM | TGI [7]: > 100 µM | TGI [8]: > 100 µM

O=C1Nc2ccc3c(c2/C1=C\c1cc2c(cc1Br)OCO2)OCO3
GI50 [1]: 0.731 µM | TGI [1]: 2.49 µM | GI50 [2]: 0.199 µM | TGI [2]: 1.7 µM | GI50 [3]: 0.793 µM | TGI [3]: 3.27 µM | GI50 [4]: 1.38 µM | TGI [4]: 5.35 µM | GI50 [5]: 0.857 µM | TGI [5]: 7.42 µM | GI50 [6]: 1.7 µM | TGI [6]: 5.14 µM | GI50 [7]: 0.855 µM | TGI [7]: 4.87 µM | GI50 [8]: 0.359 µM | TGI [8]: 3.23 µM

CCOC(=O)c1c(NC(=O)c2ccc(Cl)cc2)sc2c(CN(C)C)c(O)ccc12
GI50 [1]: 8.07 µM | TGI [1]: 36.2 µM | GI50 [2]: 8.88 µM | TGI [2]: 31.7 µM | GI50 [3]: 6.53 µM | TGI [3]: 34.5 µM | GI50 [4]: 18.3 µM | TGI [4]: > 100 µM | GI50 [5]: 14.6 µM | TGI [5]: 47.6 µM | GI50 [6]: 9.85 µM | TGI [6]: 71.4 µM | GI50 [7]: 3.55 µM | TGI [7]: 19.2 µM | GI50 [8]: 3.41 µM | TGI [8]: 14.8 µM

COc1ccc(-c2csc(Nc3cccc(-c4csc(C)n4)c3)n2)cc1
GI50 [1]: 0.902 µM | TGI [1]: 49.8 µM | GI50 [2]: 0.697 µM | TGI [2]: > 41.6 µM | GI50 [3]: 0.824 µM | TGI [3]: 4.52 µM | GI50 [4]: 6.12 µM | TGI [4]: 19.7 µM | GI50 [5]: 0.931 µM | TGI [5]: 10.1 µM | GI50 [7]: 2.27 µM | TGI [7]: > 31.2 µM | GI50 [8]: 0.249 µM | TGI [8]: 7.61 µM

C[C@@H]1CCc2ncc(F)cc2[C@H]2CCCN2c2ccn3ncc(c3n2)C(=O)N1
GI50 [1]: 69.3 µM | TGI [1]: > 100 µM | GI50 [2]: 34.6 µM | TGI [2]: > 100 µM | GI50 [3]: 29.9 µM | TGI [3]: > 100 µM | GI50 [4]: 28.3 µM | TGI [4]: > 100 µM | GI50 [5]: > 100 µM | TGI [5]: > 100 µM | GI50 [6]: 62.4 µM | TGI [6]: > 100 µM | GI50 [7]: > 100 µM | TGI [7]: > 100 µM | GI50 [8]: 69.5 µM | TGI [8]: > 100 µM

CCn1c(-c2nonc2N)nc2cnc(Oc3cccc(NC(=O)c4ccc(N(C)C)cc4)c3)cc21
GI50 [1]: 2.12 µM | TGI [1]: > 25 µM | GI50 [2]: 22 µM | TGI [2]: > 25 µM | GI50 [3]: > 17 µM | TGI [3]: > 25 µM | GI50 [4]: > 25 µM | TGI [4]: > 25 µM | GI50 [5]: > 25 µM | TGI [5]: > 25 µM | GI50 [6]: > 25 µM | TGI [6]: > 25 µM | GI50 [7]: > 25 µM | TGI [7]: > 25 µM | GI50 [8]: > 25 µM | TGI [8]: > 25 µM

C=C1CC[C@H]2C(C)=CC[C@H]3C(=C)C(=O)O[C@@H]3[C@@H]12
TGI [1]: > 100 µM | TGI [2]: > 100 µM | TGI [3]: > 100 µM | TGI [4]: > 100 µM | TGI [5]: > 100 µM | TGI [6]: > 100 µM | TGI [7]: > 100 µM | TGI [8]: > 100 µM

CC(O)[C@H](NC(=O)N[C@@H](CC(N)=O)c1nc(N2CCNCC2)no1)C(=O)O (some centres not stated)
GI50 [1]: > 100 µM | TGI [1]: > 100 µM | GI50 [2]: > 100 µM | TGI [2]: > 100 µM | GI50 [3]: > 100 µM | TGI [3]: > 100 µM | GI50 [4]: > 100 µM | TGI [4]: > 100 µM | GI50 [5]: > 100 µM | TGI [5]: > 100 µM | GI50 [6]: > 100 µM | TGI [6]: > 100 µM | GI50 [7]: > 100 µM | TGI [7]: > 100 µM | GI50 [8]: > 100 µM | TGI [8]: > 100 µM

O=C(O)CCCCC1CCSS1 (configuration not stated)
TGI [1]: > 100 µM | TGI [2]: > 100 µM | TGI [3]: > 100 µM | TGI [4]: > 100 µM | TGI [5]: > 100 µM | TGI [6]: > 100 µM | TGI [7]: > 100 µM

O=[N+]([O-])/C=C/c1ccc(Cl)cc1[N+](=O)[O-]
GI50 [1]: 6.72 µM | TGI [1]: 30.3 µM | GI50 [2]: 2.01 µM | TGI [2]: 5.85 µM | GI50 [3]: 2.33 µM | TGI [3]: 6.46 µM | GI50 [4]: 2.43 µM | TGI [4]: 6.96 µM | GI50 [5]: 2.86 µM | TGI [5]: 10.6 µM | GI50 [6]: 4.36 µM | TGI [6]: 15 µM | GI50 [7]: 3.88 µM | TGI [7]: 13.6 µM | GI50 [8]: 1.55 µM | TGI [8]: 3.64 µM

OCC(O)C(O)C(O)C(O)c1nnc2c(-c3ccccc3)nc3ccccc3n12 (configuration not stated)
GI50 [1]: > 100 µM | TGI [1]: > 100 µM | GI50 [2]: 14.5 µM | TGI [2]: > 100 µM | GI50 [3]: 32.8 µM | TGI [3]: > 100 µM | GI50 [4]: > 100 µM | TGI [4]: > 100 µM | GI50 [5]: > 100 µM | TGI [5]: > 100 µM | GI50 [6]: 16 µM | TGI [6]: 96.3 µM | GI50 [7]: 53.5 µM | TGI [7]: > 100 µM | GI50 [8]: > 100 µM | TGI [8]: > 100 µM
